Reference: patent publication US5266328A, “Laminin a chain polypeptides from the carboxy terminal globular domain” (Regents of the University of Minnesota, priority 1990, dated 1993)

Columns and labels:
Format in all cases: cell-based
[1] = test system: human colon carcinoma KM12 C (low metastatic) cell line; experiment: Direct cell adhesion to peptide-coated surfaces; details: surface coated with 1 μg
From the text: (§1) The murine melanoma K-1735-C10 (low metastatic) and K-1735-M4 (high metastatic) cell lines, murine UV-2237-MM fibrosarcoma cell line, human renal carcinoma SN12 C (low metastatic) and SN12 PM-6 (high metastatic) cell lines, and human colon carcinoma KM12 C (low metastatic) and KM12 SM (high metastatic) cell lines were originally provided by Dr. I. J. Fidler (M.D., Anderson Hospital, University of Texas Health Sciences Center, Houston, Tex.). The human fibrosarcoma HT-1080 cell line was obtained from the ATCC. The MM fibrosarcoma cell line was maintained in DME (GIBCO Laboratories, Grand Island, N.Y.) containing 10% FBS, the murine melanomas were maintained in DMEM containing 10% calf serum, the human fibrosarcoma cells were maintained in EMEM containing 10% heat inactivated FBS, and the human renal and colon carcinoma cells were grown in EME containing 10% FBS, vitamins, and 1 mM sodium pyruvate. Cells were passaged for 4 to 5 weeks and then replaced from frozen stocks of early passage cells to minimize phenotypic drift. Cells were maintained at 37° C. in a humidified incubator containing 5% CO2.
(§2) The direct adhesion of cells to protein or peptide coated surfaces was performed as described in Skubitz et al., Exp. Cell Res., 173, 349-360 (1987) and Charonis et al., supra (1988). Briefly, radiolabeled cells were added to 96-well microtiter plates coated with various concentrations of synthetic peptides, laminin, or BSA (0.02 μg/well-50 μg/well from 50 μl solutions) for various lengths of time. After the incubation period, loosely or nonadherent cells were removed by washing the wells three times. Adherent cells were solubilized and quantitated in a scintillation counter. More specifically, cultures of cells which were 60-80% confluent were metabolically labeled for 24 hours with the addition of 3 μCi/ml of ^3 H-td (tritiated thymidine). On the day of the assay, the cells were harvested by trypsinization, the trypsin was inhibited by the addition of serum, and the cells were washed free of this mixture and resuspended in DMEM buffered with HEPES at pH 7.2. The adhesion medium also contained 2 mg/ml BSA. The cells were adjusted to a concentration of 3-4×10^4 /ml, and 100 μl of this cell suspension was added to the wells. The assay mixture was then incubated at 37° C. for 120 minutes. At the end of the incubation, the wells were washed with warm DMEM/Hepes containing 2 mg/ml BSA, and the adherent population was solubilized with 0.5N NaOH contained 1% SDS. The solubilized cells were then quantitated using a liquid scintillation counter.
(§3) Instead of attempting to characterize the cell binding activity of all 14 of the synthetic peptides, a number of peptides from each of the three heparin binding categories of peptides were evaluated. Microtiter wells were adsorbed with the peptides, laminin, or BSA and a variety of tumor cell lines were tested for the ability to adhere to the ligands. The eight different cell lines selected for this study were of murine or human origin and, in most cases, of either high or low metastatic capacity. […] Many of the peptides that were very good at binding heparin and cells were also capable of inhibiting the adhesion of various cells to surfaces coated with laminin (see below).

[2] = test system: human renal carcinoma SN12 PM-6 (high metastatic) cell line; experiment: Direct cell adhesion to peptide-coated surfaces; details: surface coated with 1 μg; human renal (SN12 PM6)
From the text: as §1, §2, §3

[3] = test system: murine melanoma K-1735-M4 (high metastatic) cell line; experiment: Direct cell adhesion to peptide-coated surfaces; details: surface coated with 1 μg
From the text: as §1, §2, §3

[4] = test system: murine melanoma K-1735-C10 (low metastatic) cell line; experiment: Direct cell adhesion to peptide-coated surfaces; details: surface coated with 1 μg
From the text: as §1, §2, §3

[5] = test system: human renal carcinoma SN12 C (low metastatic) cell line; experiment: Direct cell adhesion to peptide-coated surfaces; details: surface coated with 1 μg; human renal (SN12C)
From the text: as §1, §2, §3

[6] = test system: murine UV-2237-MM fibrosarcoma cell line; experiment: Direct cell adhesion to peptide-coated surfaces; details: surface coated with 1 μg
From the text: as §1, §2, §3

[7] = test system: human renal (SN12 PM6) cells; experiment: Cell spreading assay; details: wells coated at 100 μg/ml, 2 1/2 hour incubation
Protocol: (§4) Spreading of the adherent cells was evaluated by performing adhesion assays similar to those described above. Twenty-four well tissue culture plates (Becton Dickinson and Co., Lincoln Park, N.J.) were coated with 300 μl of laminin, synthetic peptides, or BSA at 100 μg/ml, then blocked with 2 mg/ml BSA in PBS. Three hundred microliters of a cell suspension at 5×10^4 cells/ml was added to each well, and after a 21/2 hour incubation, nonadherent cells were aspirated out of the wells. Adherent cells were fixed with 2% glutaraldehyde in PBS at 23° C. for one hour. The glutaraldehyde was then removed and the cells were stained by two different techniques. For photographic purposes, the cells were stained with Diff-Quik Solution I (American Scientific Products, McGaw Park, Ill.) for 10 minutes at 23° C. Solution I was removed, then Diff-Quik Solution II was added and the cells were stained for another 10 minutes at 23° C. Wells were washed with PBS, then representative cells were photographed with a Nikon DIAPHOT inverted phase microscope using Panatomic X Film ASA32 (Eastman Kodak, Rochester, N.Y.). Adherent cells to be quantitated for spreading were stained overnight at 23° C. with 500 μl of a solution containing 0.12% (w/v) Coomassie Brilliant Blue R (Sigma Chemical Co.), 5% (v/v) acetic acid, and 50% (v/v) ethanol. Wells were washed three times with 500 μl of PBS and cell spreading was then quantitated by measuring the average surface area occupied by a cell using an Opti-Max Image Analyzer. Thirty cells were measured per well; each experiment was done in quadruplicate and repeated three times. In all cases, the cells spread on the peptides to occupy an area about 60% of that seen on laminin-coated surfaces.

[8] = test system: human renal (SN12C) cells; experiment: Cell spreading assay; details: wells coated at 100 μg/ml, 2 1/2 hour incubation
Protocol: as §4

[9] = test system: murine fibrosarcoma (MM) cells; experiment: Cell spreading assay; details: wells coated at 100 μg/ml, 2 1/2 hour incubation
Protocol: as §4

[10] = test system: HT-1080 human fibrosarcoma cells; experiment: Cell spreading assay; details: wells coated at 100 μg/ml, 2 1/2 hour incubation
Protocol: as §4

[11] = test system: human fibrosarcoma HT-1080 cell line; experiment: Direct cell adhesion to peptide-coated surfaces; details: surface coated with 1 μg; human fibrosarcoma (HT1080)
From the text: The murine melanoma K-1735-C10 (low metastatic) and K-1735-M4 (high metastatic) cell lines, murine UV-2237-MM fibrosarcoma cell line, human renal carcinoma SN12 C (low metastatic) and SN12 PM-6 (high metastatic) cell lines, and human colon carcinoma KM12 C (low metastatic) and KM12 SM (high metastatic) cell lines were originally provided by Dr. I. J. Fidler (M.D., Anderson Hospital, University of Texas Health Sciences Center, Houston, Tex.). The human fibrosarcoma HT-1080 cell line was obtained from the ATCC. […]
The direct adhesion of cells to protein or peptide coated surfaces was performed as described in Skubitz et al., Exp. Cell Res., 173, 349-360 (1987) and Charonis et al., supra (1988). […] Adherent cells were solubilized and quantitated in a scintillation counter. […] The solubilized cells were then quantitated using a liquid scintillation counter.
Instead of attempting to characterize the cell binding activity of all 14 of the synthetic peptides, a number of peptides from each of the three heparin binding categories of peptides were evaluated. […]
Radiolabeled HT-1080 human fibrosarcoma cells were incubated in the wells for 30 minutes and the adhesion of cells was quantitated.

Laminin: extracellular matrix glycoprotein isolated from the EHS murine tumor; positive control
Percentage of Cells Adhered to Surface [1]: 11% | Percentage of Cells Adhered to Surface [2]: 36% | Percentage of Cells Adhered to Surface [3]: 13% | Percentage of Cells Adhered to Surface [4]: 58% | Percentage of Cells Adhered to Surface [5]: 28% | Percentage of Cells Adhered to Surface [6]: 53% | Surface Area Occupied by a Cell [7]: 550 ± 29 μm^2 | Surface Area Occupied by a Cell [8]: 520 ± 14 μm^2 | Surface Area Occupied by a Cell [9]: 443 ± 32 μm^2 | Surface Area Occuppied by a Cell ([10]; HT-1080, Table VII): 610 +/- 62 um2 | Surface Area Occupied by a Cell ([10]; human fibrosarcoma (HT1080), Table VI): 610 ± 62 μm^2 | Percentage of Cells Adhered to Surface [11]: 41%
